Consider eleven molecules from paper PMC5439695 (PLoS ONE, 2017).

Read-outs that look alike come from different tables or passages of the source. Bounds are passed on as bounds.

In series [1] the test system is HEK293 and HepG2 cell lines.
The next series concerns NRF2. Particulars: cited from earlier work; for Nrf2 TF activity (in words): Tox21 assay.
For series [2], the system named is HepG2 cells. Description: CellTox Green Cytotoxicity Assay (flor) in HepG2, HepG2[flor].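 As to hepg2 flor emax 0: percent activity versus DMSO-only wells with baseline rescaled to 0%.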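 As to hepg2 flor emax 40: percent activity versus DMSO-only wells with baseline rescaled to 0%.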 Type of series: cell-based, human. The note with it: HepG2 flor; for EC50: Homo sapiens, given as negative log-scale values.
Series [3] has as its system HEK293 cells. Description: cells. Particulars: Homo sapiens.
In series [4] the test system is HEK293 cells. Description: cells. The note with it: Homo sapiens. The source holds these as a separate data set.
Series [5] concerns HepG2 cells. The series can be described thus: cells. The note with it: Homo sapiens.
Series [6] has as its system HepG2 cells. The note with it: HepG2 glo.
The test system of series [7] is HEK293 cells. The note with it: HEK293 glo.
The subject of series [8] is HEK293 cells. Particulars: HEK293 flor.

Turning to `CC(C)(c1ccc(O)cc1)c1ccc(O)cc1` [Bisphenol A], the “cytotoxicity kinetics activity profile in the four real-time cytotoxicity assays” value (“cytotoxicity kinetics activity profile” for short) in series [1] (human) was “active only in HEK293[glo]”. In the series with NRF2, the “Nrf2 TF activity (in words)” value is “increased Nrf2 TF activity”.

With `CC(=O)O[C@H]1CC[C@@]2(C)C(=CC[C@@H]3[C@@H]2CC[C@]2(C)C(C(C)=O)=CC[C@@H]32)C1` [Dehydropregnenolone acetate], the “increase NRF2 TF activity, POD potency” value in the series on NRF2 is on record as 4.85 log10(M)*-1.

For the molecule `O=C(OC1CCCCC1)c1ccccc1C(=O)OC1CCCCC1` [Dicyclohexyl phthalate], the “increase NRF2 TF activity, POD potency” value in the series with NRF2 is recorded as 4.18 log10(M)*-1.

As for `CC/C(=C(/CC)c1ccc(O)cc1)c1ccc(O)cc1` [Diethylstilbestrol, reference compound], in series [1] (human), the “cytotoxicity kinetics activity profile” value is “active only in HEK293[glo]”. In addition, in the series on NRF2, the “Nrf2 TF activity (in words)” value is listed as “increased Nrf2 TF activity”.

With `O.[Br-].[Br-].c1cc[n+]2c(c1)-c1cccc[n+]1CC2` [Diquat dibromide monohydrate], in the series on NRF2, the “increase NRF2 TF activity, POD potency” value is listed as 5.17 log10(M)*-1.

On to `CC(C)C(=O)Nc1ccc([N+](=O)[O-])c(C(F)(F)F)c1` [Flutamide, reference compound], for which, in [1] (human), the “cytotoxicity kinetics activity profile” value was “active only in HEK293[glo]”. Also, the “Nrf2 TF activity (in words)” value with NRF2 was “increased Nrf2 TF activity”.

Turning to `CC(C)(O)C(=O)Nc1ccc([N+](=O)[O-])c(C(F)(F)F)c1` [Hydroxyflutamide, reference compound], the “cytotoxicity kinetics activity profile” value in [1] (human) is “active only in HEK293[glo]”. The “Nrf2 TF activity (in words)” value with NRF2 was “increased Nrf2 TF activity”.

With `O=C(OCCN1CCOCC1)c1cccnc1Nc1cccc(C(F)(F)F)c1` [Morniflumate, reference compound], in the series with NRF2, the “increase NRF2 TF activity, POD potency” value is reported as 4.54 log10(M)*-1.

Regarding `O=S1(=O)OC(c2ccc(O)cc2)(c2ccc(O)cc2)c2ccccc21` [Phenol red], in the series on HepG2 cells [2], the hepg2_flor_auc was found to be 0 and the hepg2_flor_time was 48. In addition, the hepg2_flor_bin entry in the series with HepG2 cells [2] (kinetics bin) is “inactive”. For the same molecule, in the series with HepG2 cells [2] (time point 0), the hepg2_flor_emax_0 was 0, the hepg2_flor_pod_0 is -4.417 and the hepg2_flor_wauc_0 was found to be 0. Besides, in the series with HepG2 cells [2] (time point 8), the hepg2_flor_emax_8 is listed as 0, the hepg2_flor_pod_8 is given as -4.417 and the hepg2_flor_wauc_8 was 0. In the series with HepG2 cells [2] (time point 16), the hepg2_flor_emax_16 is recorded as 0, the hepg2_flor_pod_16 is on record as -4.417 and the hepg2_flor_wauc_16 was 0. In the series on HepG2 cells [2] (time point 24), the hepg2_flor_emax_24 is on record as 0, the hepg2_flor_pod_24 was -4.417 and the hepg2_flor_wauc_24 turned out to be 0. Also, in the series with HepG2 cells [2] (time point 32), the hepg2_flor_emax_32 is listed as 0, the hepg2_flor_pod_32 was -4.417 and the hepg2_flor_wauc_32 is recorded as 0. Also, in the series with HepG2 cells [2] (time point 40), the hepg2_flor_emax_40 turned out to be 0, the hepg2_flor_pod_40 is -4.417 and the hepg2_flor_wauc_40 was determined as 0. In the series on HepG2 cells [2] (time point 0, read-out: hepg2_flor_ec50_0), the EC50 was > 38.3 µM. In addition, in the series with HepG2 cells [2] (time point 8, read-out: hepg2_flor_ec50_8), the EC50 was > 38.3 µM. Moreover, the EC50 in the series with HepG2 cells [2] (time point 16, read-out: hepg2_flor_ec50_16) is > 38.3 µM. Also, in the series on HepG2 cells [2] (time point 24, read-out: hepg2_flor_ec50_24), the EC50 was > 38.3 µM. The EC50 with HepG2 cells [2] (time point 32, read-out: hepg2_flor_ec50_32) was > 38.3 µM. The EC50 with HepG2 cells [2] (time point 40, read-out: hepg2_flor_ec50_40) is > 38.3 µM. Besides, the EC50 in the series on HEK293 cells [3] (HEK293, read-out: hek293_flor_ec50_0) was > 38.3 µM. Also, the EC50 in the series on HEK293 cells [3] (HEK293, read-out: hek293_flor_ec50_8) is > 38.3 µM. Moreover, in the series on HEK293 cells [3] (HEK293, read-out: hek293_flor_ec50_16), the EC50 was > 38.3 µM. Further, in the series with HEK293 cells [3] (HEK293, read-out: hek293_flor_ec50_24), the EC50 was > 38.3 µM. Further, the EC50 in the series on HEK293 cells [3] (HEK293, read-out: hek293_flor_ec50_32) was > 38.3 µM. In addition, the EC50 with HEK293 cells [3] (HEK293, read-out: hek293_flor_ec50_40) was > 38.3 µM. Also, in the series with HEK293 cells [4] (HEK293, read-out: hek293_glo_ec50_0), the EC50 was 25.6 µM. The EC50 with HEK293 cells [4] (HEK293, read-out: hek293_glo_ec50_8) is 25.6 µM. Moreover, the EC50 with HEK293 cells [4] (HEK293, read-out: hek293_glo_ec50_16) was 25.6 µM. For the same molecule, the EC50 in the series on HEK293 cells [4] (HEK293, read-out: hek293_glo_ec50_24) is > 38.3 µM. For the same molecule, the EC50 in the series with HEK293 cells [4] (HEK293, read-out: hek293_glo_ec50_32) was > 38.3 µM. Further, in the series on HEK293 cells [4] (HEK293, read-out: hek293_glo_ec50_40), the EC50 is > 38.3 µM. In [1] (any activity in any time point/assay), this molecule showed an information of 1. In addition, the EC50 with HepG2 cells [5] (HepG2, read-out: hepg2_glo_ec50_0) is 25.6 µM. In the series with HepG2 cells [5] (HepG2, read-out: hepg2_glo_ec50_8), the EC50 is > 38.3 µM. The EC50 in the series on HepG2 cells [5] (HepG2, read-out: hepg2_glo_ec50_16) is > 38.3 µM. Moreover, the EC50 in the series on HepG2 cells [5] (HepG2, read-out: hepg2_glo_ec50_24) was > 38.3 µM. Moreover, the EC50 in the series on HepG2 cells [5] (HepG2, read-out: hepg2_glo_ec50_32) is > 38.3 µM. Further, the EC50 in the series on HepG2 cells [5] (HepG2, read-out: hepg2_glo_ec50_40) was > 38.3 µM. Also, the hepg2_glo_auc in the series with HepG2 cells [6] was found to be 0.5829. Moreover, the hepg2_glo_bin result with HepG2 cells [6] (kinetics bin) is “inconclusive”. In the series on HepG2 cells [6] (time point 0), the hepg2_glo_emax_0 is on record as -25.8612, the hepg2_glo_pod_0 is reported as -4.428 and the hepg2_glo_wauc_0 came to 0.7068. In addition, in the series with HepG2 cells [6] (time point 8), the hepg2_glo_emax_8 is on record as 0, the hepg2_glo_pod_8 is recorded as -4.417 and the hepg2_glo_wauc_8 came to 0. In the series on HepG2 cells [6] (time point 16), the hepg2_glo_emax_16 is on record as 0, the hepg2_glo_pod_16 is reported as -4.417 and the hepg2_glo_wauc_16 came out at 0. In the series with HepG2 cells [6] (time point 24), the hepg2_glo_emax_24 came out at 0, the hepg2_glo_pod_24 is on record as -4.417 and the hepg2_glo_wauc_24 worked out at 0. For the same molecule, in the series on HepG2 cells [6] (time point 32), the hepg2_glo_emax_32 is on record as 0, the hepg2_glo_pod_32 is listed as -4.417 and the hepg2_glo_wauc_32 is on record as 0. In the series on HepG2 cells [6] (time point 40), the hepg2_glo_emax_40 is given as 0, the hepg2_glo_pod_40 was -4.417 and the hepg2_glo_wauc_40 was found to be 0. Besides, in the series on HEK293 cells [7], the hek293_glo_auc stood at 1.203 and the hek293_glo_time is 40. In addition, the hek293_glo_bin entry with HEK293 cells [7] (kinetics bin) was “no_cv (no_cv: time > 40)”. In the series with HEK293 cells [7] (time point 0), the hek293_glo_emax_0 is -33.7, the hek293_glo_pod_0 is recorded as -4.507 and the hek293_glo_wauc_0 was determined as 0.8079. In the series on HEK293 cells [7] (time point 8), the hek293_glo_emax_8 is listed as -27.7816, the hek293_glo_pod_8 is -4.452 and the hek293_glo_wauc_8 is recorded as 0.7338. Besides, in the series with HEK293 cells [7] (time point 16), the hek293_glo_emax_16 is on record as -27.6507, the hek293_glo_pod_16 was -4.4502 and the hek293_glo_wauc_16 amounted to 0.732. In the series on HEK293 cells [7] (time point 24), the hek293_glo_emax_24 is 0, the hek293_glo_pod_24 is on record as -4.417 and the hek293_glo_wauc_24 amounted to 0. In the series on HEK293 cells [7] (time point 32), the hek293_glo_emax_32 turned out to be 0, the hek293_glo_pod_32 is listed as -4.417 and the hek293_glo_wauc_32 turned out to be 0. Also, in the series on HEK293 cells [7] (time point 40), the hek293_glo_emax_40 was determined as 0, the hek293_glo_pod_40 is on record as -4.417 and the hek293_glo_wauc_40 worked out at 0. Also, in the series on HEK293 cells [8], the hek293_flor_auc turned out to be 0 and the hek293_flor_time is given as 48. Moreover, in the series on HEK293 cells [8] (kinetics bin), the hek293_flor_bin entry is “inactive”. Also, in the series on HEK293 cells [8] (time point 0), the hek293_flor_emax_0 is reported as 0, the hek293_flor_pod_0 is -4.417 and the hek293_flor_wauc_0 is 0. In addition, in the series on HEK293 cells [8] (time point 8), the hek293_flor_emax_8 was found to be 0, the hek293_flor_pod_8 is -4.417 and the hek293_flor_wauc_8 worked out at 0. For the same molecule, in the series on HEK293 cells [8] (time point 16), the hek293_flor_emax_16 is reported as 0, the hek293_flor_pod_16 was -4.417 and the hek293_flor_wauc_16 is given as 0. Moreover, in the series with HEK293 cells [8] (time point 24), the hek293_flor_emax_24 is given as 0, the hek293_flor_pod_24 is -4.417 and the hek293_flor_wauc_24 stood at 0. Moreover, in the series on HEK293 cells [8] (time point 32), the hek293_flor_emax_32 is 0, the hek293_flor_pod_32 was -4.417 and the hek293_flor_wauc_32 was 0. Besides, in the series on HEK293 cells [8] (time point 40), the hek293_flor_emax_40 was 0, the hek293_flor_pod_40 was -4.417 and the hek293_flor_wauc_40 was 0.

`CC12CC1(C)C(=O)N(c1cc(Cl)cc(Cl)c1)C2=O` (stereo not drawn) [procymidone, reference compound]: the “cytotoxicity kinetics activity profile” value in series [1] is on record as “no activity in all four real-time cytotoxicity assays”. Besides, in the series on NRF2, the “Nrf2 TF activity (in words)” value is recorded as “Weak Nrf2 activity”.

As for Phenol, isopropylated, phosphate (3:1), the “increase NRF2 TF activity, POD potency” value in the series on NRF2 is reported as 4.21 log10(M)*-1.
